Measurements: US7232845B2, “Active substance combinations comprising insecticidal and acaricidal properties” (Bayer CropScience AG, priority 2000, dated 2007)

system: whitefly Bemisia tabaci; experiment: Bemisia test (cotton plants infested with whitefly, immersed in active compound preparation); type: in vivo; conditions: single active compound, 4 ppm; eggs, larvae and pupae on cotton plants (Gossypium hirsutum), immersion
Description: The expected action for a given combination of two active compounds can be calculated as follows, using the formula of S. R. Colby, Weeds 15 (1967), 20–22:
• X is the efficacy, expressed as % of the untreated control, when employing active compound A at an application rate of m g/ha or in a concentration of m ppm, • Y is the efficacy, expressed as % of the untreated control, when employing active compound B at an application rate of n g/ha or in a concentration of n ppm and • E is the efficacy, expressed as % of the untreated control, when employing active compounds A and B at application rates of m and n g/ha or in a concentration of m and n ppm, then
[formula] If the actual insecticidal kill rate exceeds the calculated value, the action of the combination is superadditive, i.e. a synergistic effect is present. In this case, the actually observed insecticidal kill rate must exceed the value calculated using the above formula for the expected insecticidal kill rate (E).
• Solvent: 7.5 parts by weight of dimethylformamide • Emulsifier: 2.5 parts by weight of alkylaryl polyglycol ether
To produce a suitable preparation of active compound, 1 part by weight of active compound is mixed with the stated amounts of solvent and emulsifier, and the concentrate is diluted with water to the desired concentration.
Cotton plants (Gossypium hirsutum) which are infested with eggs, larvae and pupae of the whitefly Bemisia tabaci are immersed in a preparation of active compound of the desired concentration.
After the desired period of time, the kill in % is determined. 100% means that all animals have been killed; 0% means that none of the animals have been killed.

SMILES	Kill rate in % after 10^d [%]
Cc1c(COC(=O)C2C(/C=C(\Cl)C(F)(F)F)C2(C)C)cccc1-c1ccccc1 (stereo not drawn) [Bifenthrin, bifenthrin]	0
Cc1cc(C)c(C2=C(OC(=O)CC(C)(C)C)C3(CCCC3)OC2=O)c(C)c1 [Ex. (I-b-1)]	0
CC1(C)C(C=C(Cl)Cl)C1C(=O)OC(C#N)c1ccc(F)c(Oc2ccccc2)c1 (stereo not drawn) [Cyfluthrin, cyfluthrin]	0
